The results in this text go back to PMC7851395 (British Journal of Cancer, 2020).

For data set [1], the system named is NSCLC cells (PC-9, A549 or H460). Nature of the data set: cells. It counts as cell-based, human. The settings on record: Supplementary Table 1, cell line (PC-9, A549 or H460) not assignable. As for the experimental part: (§1) The cytotoxicity and viability of human NSCLC cells and normal cells were determined by MTT assay. MTT assay was performed as described previously.[22] MTT assay was used to determine the cell cytotoxicity and viability in human NSCLC cells. Cells (5 × 10^3 cells/well) were plated in 96-well plates and attached overnight. After the proper treatment, the MTT solution was added at 25 µL/well and incubated at 37 °C for 4 h. The formazan crystals were dissolved in 150 µL of DMSO, and the optical density (OD) was measured using a Microplate Reader at 490 nm. The cell viability was calculated by the following formula: viability = (average OD values of treatment wells/average OD values of vehicle control wells) × 100%. And half-maximal inhibitory concentration (IC50) values were determined by GraphPad Pro Prism 7.0.

Another data set deals with PC-9 cells. Nature of the data set: MTT cytotoxicity assay, PC-9 cells. It counts as cell-based. The settings on record: Homo sapiens. As for the experimental part:
as §1
A general note: Formazan colour is commonly taken as a measure of viable cells.

The next data set concerns A549 cells. Nature of the data set: MTT cytotoxicity assay, A549 cells. It counts as cell-based. Particulars: Homo sapiens, A549. As for the experimental part:
as §1

A further data set concerns H460 cells. Nature of the data set: MTT cytotoxicity assay, H460 cells. It counts as cell-based. Particulars: Homo sapiens, NCI-H460. The method, then: as §1
The subject of data set [2] is P-CDK9, CDK9, P-STAT3 and S2 RNAPII. Nature of the data set: Western blot of CDK9/STAT3 pathway proteins. It counts as cell-based, human. The settings on record: H460 and PC-9 cells, 12 h; acetyl-bufalin 25-200 nM, SNS-032 200 nM. The method, then: Tissue proteins were extracted with tissue protein lysate buffer. Cells were grown to different densities and extracted with cell protein lysate buffer. The protein was mixed with loading buffer and boiled for 10 min at 100 °C, then loaded and separated by 10% or 12% sodium dodecyl sulfate-polyacrylamide gel (SDS-PAGE) and then transferred onto a PVDF membrane blocking with 5% skim milk. The blots were incubated overnight with specific primary antibodies at 4 °C. On the second day, after washing with TBST (a mixture of tris-buffered saline (TBS) and Tween 20) three times, the […] membranes were incubated with horseradish peroxidase-conjugated secondary antibodies for 1 h. The immunoreactive bands were visualised with enhanced chemiluminescence reagent.
For orientation: In western blotting, separated proteins are transferred to a membrane and probed.

A further data set concerns H460 xenograft. It counts as in vivo, BALB/c nude mice. Particulars: 2 mg/kg i.p. every other day, compared with vehicle. As for the experimental part:
All animal procedures were done accordingly with the Institutional laboratory animal research guidelines and were approved by Wenzhou Medical University Animal Policy and Welfare Committee. Female athymic BALB/c nude mice (5–6 weeks old) and immune-defective non-obese […] diabetic severe combined immunodeficiency (NOD-SCID) mice (6–8 weeks old) were purchased from the Vital River Experimental Animal Center (Beijing, China). All the mice were housed under 12 h light–dark cycles at 25 °C and free for water and diet. For the xenograft model, the H460 cells (5 × 10^6 cells were mixed with an equal volume of PBS and Matrigel in 100 μL) were implanted on the hind flank of nude mice. Once tumour volumes reached ~50 mm^3, 24 mice were divided into four experimental groups (six mice per group, no differences in mean body weights or tumour volumes between the groups) and intraperitoneal injection with 2 mg/kg SNS-032 (a recognised CDK9 inhibitor), bufalin and acetyl-bufalin every other day. Tumour volume was measured as V = (L × W × W)/2, in which L and W represent the length and width of tumour. Animals were killed by cervical dislocation once the tumour volume reached 1000 mm^3. The tumours, hearts, livers, kidneys and lungs were removed for use in the histology and western blot analysis.

Another data set has as its target T1, CDK9 (Homo sapiens, UniProt P50750).
T1 construct: GST (N); purchased CDI Laboratories, Baltimore, MD Arrayit HuProt v2.0 19 K Human Proteome Microarrays
Nature of the data set: HuProt human proteome microarray binding. The settings on record: 10 μM on HuProt microarray, CDK9 spots. The method, then: Arrayit HuProt™ v2.0 19 K Human Proteome Microarrays (CDI Laboratories, Baltimore, MD) were blocked for 1 h with 3% BSA at room temperature. Biotinylated bufalin was diluted to 10 μM in blocking buffer and cultured on the proteome microarray at room temperature for 1 h. The arrays were washed with PBST (a mixture of PBS and Tween 20) and incubated with Cy3-Streptavidin at 1:1000 dilution (Sigma-Aldrich) for 1 h at room temperature. Finally, the microarray was spun dry and scanned with a GenePix 4200 A microarray scanner (Molecular Devices, San Jose, CA). Data were analysed by GenePix Pro 6.0 software. The signal-to-noise ratio (SNR) was defined as the ratio of median foreground value minus median background value. The cut-off value of SNR (>1.1) was set.

The next data set concerns NIH mice. Nature of the data set: Acute toxicity test. It counts as in vivo. The settings on record: 30 mg/kg single intraperitoneal injection, observed 14 days, n = 10. As for the experimental part:
In the acute toxicity test, 30 NIH mice (female, 8 weeks old) were randomly divided into three groups (n = 10), including vehicle group, bufalin group (30 mg/kg) and acetyl-bufalin group (30 mg/kg). The three groups received intraperitoneal injection only on the first day. All the mice were housed under 12 h light–dark cycles at 25 °C and free for water and diet. […] All the mice were sacrificed by cervical dislocation.

Data set [3] can be described thus: Pharmacokinetic study in rat plasma (LC-MS/MS). It counts as in vivo, S.D. rats. The settings on record: 0.25 mg/kg i.v. and 2 mg/kg i.p. As for the experimental part:
For the pharmacokinetic study, female S.D. rats (body weight 200 ± 10 g) have fasted overnight with free access to water before the experiment. Twelve rats were randomly divided into four groups. The time schedule included eight timepoints, and three S.D. rats were sampled at each time-point. Bufalin and acetyl-bufalin were administered intravenously and intraperitoneally to the rats at the dose of 0.25 mg/kg and 2 mg/kg, respectively. The animals had free access to water during the experiment. Blood samples were collected from the retro-orbital plexus of each rat at 0.083, 0.25, 0.5, 1, 2, 4, 6, 8, 12, 24 h after administration. Plasma was separated from the blood after centrifugation at 6000×g for 10 min and frozen at −20 °C until analysis. In total, 20 µL of standard samples in duplicate, quality control samples in duplicate and rat plasma samples were mixed with 60 µL of ethyl acetate containing IS (200 ng/mL of tolbutamide, 50 ng/mL of propranolol and 500 ng/mL of Dic) in EP tubes. After the mixture was vortexed for 1 min, then centrifuged for 10 min (13,000 rpm, 4 °C), transferred 50 µL supernatant to a 96-well plate with 150 µL purred water, shacked for 10 min and finally injected 5 µL into liquid chromatographic-tandem mass spectrometry (LC-MS/MS) system for analysis.

What is called IC50 is the concentration that inhibits the measured activity by half. A high value points to lower potency.

T1 sequence (P50750 whole entry): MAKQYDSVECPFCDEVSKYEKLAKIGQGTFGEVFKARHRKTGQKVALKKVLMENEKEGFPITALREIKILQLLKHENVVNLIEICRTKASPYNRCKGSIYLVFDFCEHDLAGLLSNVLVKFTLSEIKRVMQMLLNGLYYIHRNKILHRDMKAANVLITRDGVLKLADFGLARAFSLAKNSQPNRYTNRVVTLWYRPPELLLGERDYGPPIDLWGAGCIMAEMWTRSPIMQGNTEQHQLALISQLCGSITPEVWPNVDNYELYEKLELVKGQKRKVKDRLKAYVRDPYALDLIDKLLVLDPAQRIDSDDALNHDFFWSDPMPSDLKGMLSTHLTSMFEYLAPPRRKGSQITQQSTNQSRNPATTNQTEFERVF

In turn, `CC(=O)O[C@H]1C[C@]2(O)[C@@H]3CC[C@@H]4C[C@@H](O)CC[C@]4(C)[C@H]3CC[C@]2(C)[C@H]1c1ccc(=O)oc1` [Bufotalin] had an IC50 in data set [1] (Homo sapiens) of 813 nM.

Take `CC(=O)O[C@H]1[C@H]2O[C@]23[C@@H]2CC[C@@H]4C[C@@H](O)CC[C@]4(C)[C@H]2CC[C@]3(C)[C@H]1c1ccc(=O)oc1` [Cinobufagin]: the midpoint of inhibition in data set [1] (Homo sapiens), the IC50, lay at 414 nM.

`CC(=O)O[C@H]1[C@H]2O[C@]23[C@@H]2CC[C@]4(O)C[C@@H](O)CC[C@]4(C)[C@H]2CC[C@]3(C)[C@H]1c1ccc(=O)oc1` [Cinobufotalin]: the IC50 in data set [1] (Homo sapiens) turned out to be 587 nM.

As for `C[C@]12CC[C@H](O)C[C@H]1CC[C@@H]1[C@@H]2CC[C@]2(C)[C@@H](c3ccc(=O)oc3)C[C@H]3O[C@]132` [Resibufogenin], the results for the 50% inhibitory concentration (IC50) in the data set with PC-9 cells (PC-9), with A549 cells and in the data set on H460 cells were 4640 nM, 1130 nM and 1060 nM, respectively.

Turning to `CC(C)(C)c1cnc(CSc2cnc(NC(=O)C3CCNCC3)s2)o1` [SNS-032, reference compound], in [2], the “P-CDK9, CDK9, P-STAT3 and S2 RNAPII expressions” value was “significantly dose-dependently decreased”. Also, in the data set on H460 xenograft, the “tumour growth (weight and volume)” value is “significantly inhibited tumour growth”.

As to `C[C@]12CC[C@H](OC(=O)CCCC[C@@H]3SC[C@@H]4NC(=O)N[C@@H]43)C[C@H]1CC[C@@H]1[C@@H]2CC[C@]2(C)[C@H](c3ccc(=O)oc3)CC[C@@]12O` [bio-bufalin], the IC50 in the data set with PC-9 cells (PC-9, 48 h) was determined as 77.1 nM. Also, on CDK9, the “signal-to-noise ratio (SNR)” value was determined as 6.748.

Turning to `C[C@]12CC[C@H](O)C[C@H]1CC[C@@H]1[C@@H]2CC[C@]2(C)[C@@H](c3ccc(=O)oc3)CC[C@]12O` [bufalin, reference compound], the IC50 in the data set on PC-9 cells (PC-9, 48 h) turned out to be 141 nM; in the data set with A549 cells, 83.2 nM; in the data set with H460 cells, 64.7 nM. In addition, the “mortality (mice died)” value in the data set with NIH mice is reported as 10/10. The absorption result in data set [3] was “fast absorption”. The “tumour growth (weight and volume)” value with H460 xenograft was “significantly inhibited tumour growth”.

For Resibufagin, the IC50 in data set [1] is 16000 nM.
